{"source": "patent US20160010154A1", "about": "“SCREENING ASSAYS FOR THERAPEUTICS FOR PARKINSON'S DISEASE” (THE PARKINSON'S INSTITUTE, priority 2012, published 2016)", "key": {"[1]": {"tested_on": "LRRK2 mutant and ZFN-corrected NPCs", "experiment": "Mitochondrial calcein retention (MTP opening), HCI microscopy", "type": "cell-based, human", "conditions": "rotenone stress, corrected and LRRK2 mutant lines", "protocol": "Cells grown on high glucose (HG) with or without 20 uM rotenone (R) or with radical generator TBHP (200 uM). Cells were analyzed by flow cytometry and mean CM-DCFDA fluorescence (Ex./Em. 495/529 nm) of live cells was then normalized to number of viable cells. […] Images: Depicted are representative image overlays showing mitochondrial fluorescence patterns indicative of mitochondrial membrane potential for the corrected (1.7) and uncorrected (1.13) NPCs. […] Mitochondria were loaded with calcein AM and cytosolic fluorescence was quenched by CoCl2. Graph: Relative amount of mitochondrial localized calcein fluorescence identified by Mitotracker™ Red CMXROS co-localization was normalized to cell number. Images: Representative image overlays showing mitochondrial fluorescence patterns indicative of mitochondrial calcein retention and mitochondrial integrity in corrected (1.7) and uncorrected (1.13) NPCs. FIG. 4D is a graph showing HCI analysis of caspase 3/7 activation in LRRK2 NPCs measured by fluorescence activated by caspase 3/7 mediated cleavage of a DEVD peptide-DNA dye conjugate. NPCs were incubated with the caspase substrate and the % of caspase substrate fluorescence positive cells (identified by nuclear Hoechst 33342 counterstain) was determined from 4 sites acquired at 10× magnification. […]"}, "[2]": {"tested_on": "LRRK2 G2019S mutant and ZFN-corrected NPCs", "experiment": "ROS production by CM-H2DCFDA fluorescence, flow cytometry", "type": "cell-based, human", "conditions": "200 μM for 60 min, normal growth conditions, both cell lines", "protocol": "Cells were assayed for free radical production using CM-H2DCFDA that can be oxidized and rendered fluorescent by hydroxyl radicals produced by mitochondria. See, e.g., Petronilli et al. (1999) Biophysical journal 76:725-734; Nicholls (2009) Biochimica et biophysica acta 1787:1416-1424. Cytoplasmic fluorescence of this indicator dye in viable cells was assayed by flow cytometry to obtain a signature for cellular oxidative stress.\nIn particular, for stress experiments, NPCs were seeded 24 hours before being cultured under the following selective media conditions for an additional 18 hours: Standard NPC growth medium as above (HG=high glucose), HG plus 20 μM rotenone (HG+R) (SIGMA # R-8875) or an NPC growth medium formulation based on HG medium without glucose (NG, Life Techn. Neurobasal-A, Formula 05-0128DJ).\nFor flow cytometry, NPCs were seeded at 80% confluence on either 24-well (1-2×10^5 cells) or 48 well plates (5×10^4 cells) (NUNC #s 142475, 150687) on Geltrex (100 ug/ml protein) coated plates 24 hours before the experiment and then challenged as described above. In general two replicate wells were analyzed in each experimental run. After the respective treatment, cells were sampled by flow cytometry with an Accuri™ C6 cytometer with C-Sampler™ (BD Accuri) and subsequently analyzed using the Cflow® analysis software. […]"}}, "data": [{"smiles": "C=C(C)[C@H]1Cc2c(ccc3c2O[C@@H]2COc4cc(OC)c(OC)cc4[C@@H]2C3=O)O1", "note": "[rotenone]", "values": [{"measurement": "mitochondrial calcein loading", "setting": "[1]", "value": "increased mitochondrial calcein loading"}]}, {"smiles": "CC(C)(C)OO", "note": "[TBHP]", "values": [{"measurement": "ROS response to radical generator", "setting": "[2]", "value": "increase of ROS"}]}]}
